Reference: patent publication US20040096520A1, “Manganese compositions for reducing/preventing skin wrinkles and fine lines” (SOCIETE L'OREAL S.A., priority 2000, published 2004)

Tested on: phrenic nerve/isolated diaphragm preparation
Settings: 10^−3 M; contractions induced by indirect stimulation via the phrenic nerve (0.1 to 7 volts, 0.3 ms, 0.1 Hz); cumulative concentrations
Experimental: Activity of manganese gluconate and of manganese chloride in a model of nerve/muscle junction (motor plate) obtained in a phrenic nerve/isolated diaphragm preparation: investigation of a myorelaxant effect:
The phrenic nerve and the diaphragm were carefully isolated and placed in a 50 ml tank filled with survival fluid (Krebs Henseleit liquid) maintained at a temperature of 37° C. and oxygenated with a mixture of 95% oxygen and 5% CO2.
The variations in the tension of the diaphragm were then recorded with an initial preloading of several grams.
After a relaxation period of 30 min., the diaphragm was stimulated indirectly via the phrenic nerve.
On each preparation, the effect of the test products was evaluated, in a first stage, on the contractions induced by indirect stimulation via stimulation of the phrenic nerve (0.1 to 7 volts, 0.3 ms, 0.1 Hz) at increasing and cumulative concentrations from 10^−6 M to 10^−3 M.

Substance	% of inhibition (indirect stimulation)
manganese chloride [MnCl2]	10%
manganese gluconate	25%
